pIC50: −log10 of the molar value. Like-named read-outs stand apart in the source and are kept apart here.
Legend:
HCoV-OC43 Mpro = HCoV-OC43 Mpro (Human coronavirus OC43, UniProt P0C6X6); assay: HCoV-OC43 Mpro enzymatic inhibition assay (fluorescence); format: biochemical
How it was run: (§1)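 E. coli-expressed Mpro was preincubated with 10-dose, 3-fold diluted compound for 30 min at room temperature before fluorogenic substrate was added. After 60 min at 30 °C, fluorescence was read at Ex/Em 340/490 nm. Inhibition % was normalized to DMSO and GC376 controls with no-enzyme background correction, and IC50 came from a four-parameter fit.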

HCoV-229E Mpro = HCoV-229E Mpro (Human coronavirus 229E, UniProt P0C6X1); assay: HCoV-229E Mpro enzymatic inhibition assay (fluorescence); format: biochemical
Chain of HCoV-229E Mpro (P0C6X1 2966-3267 limits assumed): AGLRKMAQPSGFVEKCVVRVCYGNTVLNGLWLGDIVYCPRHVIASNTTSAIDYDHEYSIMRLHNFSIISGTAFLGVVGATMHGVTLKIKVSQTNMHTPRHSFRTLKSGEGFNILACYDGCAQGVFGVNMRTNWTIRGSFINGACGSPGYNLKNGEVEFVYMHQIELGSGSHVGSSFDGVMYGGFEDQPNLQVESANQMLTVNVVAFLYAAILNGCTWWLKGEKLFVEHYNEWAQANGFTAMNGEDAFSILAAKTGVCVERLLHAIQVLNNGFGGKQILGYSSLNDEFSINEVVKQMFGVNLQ

SARS-CoV-2 Mpro = SARS-CoV-2 Mpro (Severe acute respiratory syndrome coronavirus 2, UniProt P0DTD1); assay: SARS-CoV-2 Mpro enzymatic inhibition assay (fluorescence); format: biochemical
How it was run: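 Recombinant Mpro expressed in E. coli was preincubated 30 min at room temperature with 10-point, 3-fold serially diluted compound in duplicate. Fluorogenic substrate was then added and incubated 60 min at 30° C, and fluorescence read at Ex/Em 340/490 nm. IC50 came from a four-parameter fit of % inhibition.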

HCoV-NL63 Mpro = HCoV-NL63 Mpro (Human coronavirus NL63, UniProt P0C6X5); assay: HCoV-NL63 Mpro enzymatic inhibition assay (fluorescence); format: biochemical
Chain of HCoV-NL63 Mpro (P0C6X5 2940-3242 limits assumed): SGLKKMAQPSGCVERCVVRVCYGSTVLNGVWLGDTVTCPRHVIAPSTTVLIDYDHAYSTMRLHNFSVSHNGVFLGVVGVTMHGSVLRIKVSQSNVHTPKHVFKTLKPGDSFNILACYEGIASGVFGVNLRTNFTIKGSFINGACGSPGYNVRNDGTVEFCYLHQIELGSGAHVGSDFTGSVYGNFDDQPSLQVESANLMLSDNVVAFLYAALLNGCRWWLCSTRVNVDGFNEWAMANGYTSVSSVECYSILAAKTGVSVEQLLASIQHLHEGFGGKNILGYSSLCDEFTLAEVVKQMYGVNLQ
How it was run: as §1

HCoV-HKU1 Mpro = HCoV-HKU1 Mpro (Human coronavirus HKU1, UniProt P0C6X2); assay: HCoV-HKU1 Mpro enzymatic inhibition assay (fluorescence); format: biochemical
Chain of HCoV-HKU1 Mpro (P0C6X2 3335-3637 limits assumed): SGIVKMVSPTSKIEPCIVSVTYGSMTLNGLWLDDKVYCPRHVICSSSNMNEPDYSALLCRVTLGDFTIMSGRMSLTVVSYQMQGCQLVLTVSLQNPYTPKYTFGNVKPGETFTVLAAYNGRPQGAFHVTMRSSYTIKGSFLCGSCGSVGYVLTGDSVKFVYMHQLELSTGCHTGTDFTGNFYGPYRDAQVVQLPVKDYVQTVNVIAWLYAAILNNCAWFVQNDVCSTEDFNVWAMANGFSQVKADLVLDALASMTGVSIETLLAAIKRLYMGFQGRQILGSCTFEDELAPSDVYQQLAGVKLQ
How it was run: as §1

SARS-CoV-1 Mpro = SARS-CoV-1 Mpro (Severe acute respiratory syndrome coronavirus, UniProt P0C6X7); assay: biochemical
MERS Mpro = MERS Mpro (Middle East respiratory syndrome-related coronavirus, UniProt K9N7C7); assay: biochemical; design: species or system MERS-CoV
Chain of MERS Mpro (K9N7C7 3248-3553 limits assumed): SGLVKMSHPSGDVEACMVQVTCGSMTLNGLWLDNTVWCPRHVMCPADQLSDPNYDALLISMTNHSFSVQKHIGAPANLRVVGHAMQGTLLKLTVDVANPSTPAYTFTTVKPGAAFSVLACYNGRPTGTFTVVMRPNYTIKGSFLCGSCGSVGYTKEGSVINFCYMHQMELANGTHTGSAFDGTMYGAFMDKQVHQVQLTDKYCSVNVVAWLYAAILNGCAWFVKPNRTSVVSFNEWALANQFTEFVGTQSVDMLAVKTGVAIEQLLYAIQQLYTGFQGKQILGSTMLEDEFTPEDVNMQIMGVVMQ

[1] = mean, 25 nM protein, 25 μM substrate, 30 min pre-incubation, 60 min at 30° C., read-out: Mpro_SARS-CoV-2 mean IC50

Chain of HCoV-OC43 Mpro (P0C6X6 3247-3549 limits assumed): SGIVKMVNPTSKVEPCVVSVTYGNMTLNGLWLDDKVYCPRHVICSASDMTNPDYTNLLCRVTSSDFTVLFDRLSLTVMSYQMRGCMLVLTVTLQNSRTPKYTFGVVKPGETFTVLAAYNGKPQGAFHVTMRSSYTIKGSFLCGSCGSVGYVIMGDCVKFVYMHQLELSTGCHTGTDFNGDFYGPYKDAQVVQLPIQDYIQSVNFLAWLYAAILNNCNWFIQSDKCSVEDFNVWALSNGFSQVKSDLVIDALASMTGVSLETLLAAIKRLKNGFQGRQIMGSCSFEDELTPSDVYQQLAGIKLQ

`C[C@H](C(=O)N1C[C@H]2[C@@H]([C@H]1C(=O)N[C@H](C=O)C[C@@H]1CCNC1=O)C2(C)C)C1CCCCC1` [Compound 92, (1R,2S,5S)-3-((S)-2-Cyclohexylpropanoyl)-6,6-dimethyl-N—((S)-1-oxo-3-((S)-2-oxopyrrolidin-3-yl)propan-2-yl)-3-azabicyclo[3.1.0]hexane-2-carboxamide] showed a pIC50 (HCoV-OC43 Mpro) of 6.96, a pIC50 (HCoV-229E Mpro) of 7.36 and a pIC50 (SARS-CoV-2 Mpro; [1]) of 7.35. It also gave a pIC50 (HCoV-NL63 Mpro) of 6.79, a pIC50 (HCoV-HKU1 Mpro) of 7.40 and a pIC50 (SARS-CoV-1 Mpro) of 7.05. For the same compound, the pIC50 (MERS Mpro) was 6.38.

`Cc1ccc2[nH]c(C(=O)N3C[C@H]4[C@@H]([C@H]3C(=O)N[C@H](C=O)C[C@@H]3CCNC3=O)C4(C)C)cc2c1` [Compound 93, (1R,2S,5S)-6,6-Dimethyl-3-(5-methyl-1H-indole-2-carbonyl)-N—((S)-1-oxo-3-((S)-2-oxopyrrolidin-3-yl)propan-2-yl)-3-azabicyclo[3.1.0]hexane-2-carboxamide] showed a pIC50 (HCoV-OC43 Mpro) of 7.26, a pIC50 (HCoV-229E Mpro) of 7.48 and a pIC50 (SARS-CoV-2 Mpro) of 7.35. It also gave a pIC50 (HCoV-NL63 Mpro) of 7.27, a pIC50 (HCoV-HKU1 Mpro) of 7.62 and a pIC50 (SARS-CoV-1 Mpro) of 7.14. For the same compound, the pIC50 (MERS Mpro) was 6.50.

Compound `CC1(C)[C@@H]2[C@@H](C(=O)N[C@H](C=O)C[C@@H]3CCNC3=O)N(C(=O)C3(O)CCCCC3)C[C@@H]21` [Compound 94, (1R,2S,5S)-3-(1-Hydroxycyclohexanecarbonyl)-6,6-dimethyl-N—((S)-1-oxo-3-((S)-2-oxopyrrolidin-3-yl)propan-2-yl)-3-azabicyclo[3.1.0]hexane-2-carboxamide] has a pIC50 (HCoV-OC43 Mpro) of 6.64, a pIC50 (HCoV-229E Mpro) of 7.16 and a pIC50 (SARS-CoV-2 Mpro; [1]) of 7.35. For the same compound, the pIC50 (HCoV-NL63 Mpro) was 6.46, the pIC50 (HCoV-HKU1 Mpro) was 6.75 and the pIC50 (SARS-CoV-1 Mpro) was 6.94. The pIC50 (MERS Mpro) was 6.25.

Work on `CC(C)(C)CC(=O)N1C[C@H]2[C@@H]([C@H]1C(=O)N[C@H](C=O)C[C@@H]1CCNC1=O)C2(C)C` [Compound 95, (1R,2S,5S)-3-(3,3-Dimethylbutanoyl)-6,6-dimethyl-N—((S)-1-oxo-3-((S)-2-oxopyrrolidin-3-yl)propan-2-yl)-3-azabicyclo[3.1.0]hexane-2-carboxamide] yielded a pIC50 (HCoV-OC43 Mpro) of 6.91, a pIC50 (HCoV-229E Mpro) of 7.17 and a pIC50 (SARS-CoV-2 Mpro; [1]) of 7.34. It also gave a pIC50 (HCoV-NL63 Mpro) of 6.72, a pIC50 (HCoV-HKU1 Mpro) of 7.19 and a pIC50 (SARS-CoV-1 Mpro) of 7.00. For the same compound, the pIC50 (MERS Mpro) was 6.38.

In the case of `CC1(C)[C@@H]2[C@@H](C(=O)N[C@H](C=O)C[C@@H]3CCNC3=O)N(C(=O)c3cc4c(Cl)cc(Cl)cc4[nH]3)C[C@@H]21` [Compound 97, (1R,2S,5S)-3-(4,6-Dichloro-1H-indole-2-carbonyl)-6,6-dimethyl-N—((S)-1-oxo-3-((S)-2-oxopyrrolidin-3-yl)propan-2-yl)-3-azabicyclo[3.1.0]hexane-2-carboxamide], the pIC50 (HCoV-OC43 Mpro) was 7.14, the pIC50 (HCoV-229E Mpro) was 7.34 and the pIC50 (SARS-CoV-2 Mpro) was 7.30. It also gave a pIC50 (HCoV-NL63 Mpro) of 7.05, a pIC50 (HCoV-HKU1 Mpro) of 7.57 and a pIC50 (SARS-CoV-1 Mpro) of 7.12. The pIC50 (MERS Mpro) was 6.40.

In the case of `O=C[C@H](C[C@@H]1CCNC1=O)NC(=O)[C@@H]1C[C@@H](F)CN1C(=O)c1cc2ccccc2[nH]1` [Compound 98, (2S,4R)-4-fluoro-1-(1H-Indole-2-carbonyl)-N—((S)-1-oxo-3-((S)-2-oxopyrrolidin-3-yl)propan-2-yl)pyrrolidine-2-carboxamide], the pIC50 (HCoV-OC43 Mpro) was 7.09, the pIC50 (HCoV-229E Mpro) was 7.24 and the pIC50 (SARS-CoV-2 Mpro) was 7.29. The pIC50 (HCoV-NL63 Mpro) was 6.98, the pIC50 (HCoV-HKU1 Mpro) was 8.15 and the pIC50 (SARS-CoV-1 Mpro) was 6.69. For the same compound, the pIC50 (MERS Mpro) was 6.29.

In the case of `Cn1c(C(=O)N2C[C@H]3[C@@H]([C@H]2C(=O)N[C@H](C=O)C[C@@H]2CCNC2=O)C3(C)C)cc2c(F)cccc21` [Compound 100, (1R,2S,5S)-3-(4-Fluoro-1-methyl-1H-indole-2-carbonyl)-6,6-dimethyl-N—((S)-1-oxo-3-((S)-2-oxopyrrolidin-3-yl)propan-2-yl)-3-azabicyclo[3.1.0]hexane-2-carboxamide], the pIC50 (HCoV-OC43 Mpro) was 6.88, the pIC50 (HCoV-229E Mpro) was 6.97 and the pIC50 (SARS-CoV-2 Mpro) was 7.27. For the same compound, the pIC50 (HCoV-NL63 Mpro) was 6.40, the pIC50 (HCoV-HKU1 Mpro) was 7.02 and the pIC50 (SARS-CoV-1 Mpro) was 7.03. For the same compound, the pIC50 (MERS Mpro) was 6.06.

For `CO[C@H]1C[C@@H](C(=O)N[C@H](C=O)C[C@@H]2CCNC2=O)N(C(=O)c2cc3ccccc3[nH]2)C1` [Compound 102, (2S,4S)-1-(1H-Indole-2-carbonyl)-4-methoxy-N—((S)-1-oxo-3-((S)-2-oxopyrrolidin-3-yl)propan-2-yl)pyrrolidine-2-carboxamide], the pIC50 (HCoV-OC43 Mpro) was 6.85, the pIC50 (HCoV-229E Mpro) was 6.93 and the pIC50 (SARS-CoV-2 Mpro) was 7.20. It also gave a pIC50 (HCoV-NL63 Mpro) of 6.70, a pIC50 (HCoV-HKU1 Mpro) of 7.08 and a pIC50 (SARS-CoV-1 Mpro) of 6.69. It also gave a pIC50 (MERS Mpro) of 6.20.

With `C[C@H](C(=O)N1C[C@H]2[C@@H]([C@H]1C(=O)N[C@H](C=O)C[C@@H]1CCNC1=O)C2(C)C)c1ccccc1` [Compound 104, (1R,2S,5S)-6,6-Dimethyl-N—((S)-1-oxo-3-((S)-2-oxopyrrolidin-3-yl)propan-2-yl)-3-((S)-2-phenylpropanoyl)-3-azabicyclo[3.1.0]hexane-2-carboxamide] the pIC50 (HCoV-OC43 Mpro) was 6.71, the pIC50 (HCoV-229E Mpro) was 6.93 and the pIC50 (SARS-CoV-2 Mpro; [1]) was 7.19. The pIC50 (HCoV-NL63 Mpro) was 6.06, the pIC50 (HCoV-HKU1 Mpro) was 6.96 and the pIC50 (SARS-CoV-1 Mpro) was 6.94. For the same compound, the pIC50 (MERS Mpro) was 6.16.

`O=C[C@H](C[C@@H]1CCNC1=O)NC(=O)[C@@H]1[C@H]2C[C@H](F)[C@H](C2)N1C(=O)c1cc2ccccc2[nH]1` [Compound 106, (1S,3S,4R,6S)-6-Fluoro-2-(1H-indole-2-carbonyl)-N—((S)-1-oxo-3-((S)-2-oxopyrrolidin-3-yl)propan-2-yl)-2-azabicyclo[2.2.1]heptane-3-carboxamide] was tested, and the pIC50 (HCoV-OC43 Mpro) was 6.93, the pIC50 (HCoV-229E Mpro) was 7.04 and the pIC50 (SARS-CoV-2 Mpro) was 7.13. It also gave a pIC50 (HCoV-NL63 Mpro) of 6.81, a pIC50 (HCoV-HKU1 Mpro) of 7.40 and a pIC50 (SARS-CoV-1 Mpro) of 6.75. For the same compound, the pIC50 (MERS Mpro) was 6.07.

With `C[C@@H]1C[C@@H](C(=O)N[C@H](C=O)C[C@@H]2CCNC2=O)N(C(=O)c2cc3ccccc3[nH]2)C1` [Compound 107, (2S,4R)-1-(1H-Indole-2-carbonyl)-4-methyl-N—((S)-1-oxo-3-((S)-2-oxopyrrolidin-3-yl)propan-2-yl)pyrrolidine-2-carboxamide] the pIC50 (HCoV-OC43 Mpro) was 6.71, the pIC50 (HCoV-229E Mpro) was 7.35 and the pIC50 (SARS-CoV-2 Mpro) was 7.11. For the same compound, the pIC50 (HCoV-NL63 Mpro) was 7.21, the pIC50 (HCoV-HKU1 Mpro) was 7.33 and the pIC50 (SARS-CoV-1 Mpro) was 6.73. For the same compound, the pIC50 (MERS Mpro) was 6.28.

For `C=C1C[C@@H](C(=O)N[C@H](C=O)C[C@@H]2CCNC2=O)N(C(=O)c2cc3ccccc3[nH]2)C1` [Compound 108, (S)-1-(1H-Indole-2-carbonyl)-4-methylene-N—((S)-1-oxo-3-((S)-2-oxopyrrolidin-3-yl)propan-2-yl)pyrrolidine-2-carboxamide], the pIC50 (HCoV-OC43 Mpro) was 6.71, the pIC50 (HCoV-229E Mpro) was 7.32 and the pIC50 (SARS-CoV-2 Mpro) was 7.11. The pIC50 (HCoV-NL63 Mpro) was 7.42, the pIC50 (HCoV-HKU1 Mpro) was 7.54 and the pIC50 (SARS-CoV-1 Mpro) was 6.80. For the same compound, the pIC50 (MERS Mpro) was 6.54.

With `O=C[C@H](C[C@@H]1CCNC1=O)NC(=O)[C@@H]1C[C@@H](Cc2ccccc2Cl)CN1C(=O)c1cc2ccccc2[nH]1` [Compound 109, (2S,4R)-4-(2-Chlorobenzyl)-1-(1H-indole-2-carbonyl)-N—((S)-1-oxo-3-((S)-2-oxopyrrolidin-3-yl)propan-2-yl)pyrrolidine-2-carboxamide] the pIC50 (HCoV-OC43 Mpro) was 6.57, the pIC50 (HCoV-229E Mpro) was 6.43 and the pIC50 (SARS-CoV-2 Mpro) was 7.09. It also gave a pIC50 (HCoV-NL63 Mpro) of 5.63, a pIC50 (HCoV-HKU1 Mpro) of 7.31 and a pIC50 (SARS-CoV-1 Mpro) of 6.64. It also gave a pIC50 (MERS Mpro) of 5.36.

In the case of `CC1CC(C(=O)N2C[C@H]3[C@@H]([C@H]2C(=O)N[C@H](C=O)C[C@@H]2CCNC2=O)C3(C)C)C1` (stereo partly drawn) [Compound 110, (1R,2S,5S)-6,6-Dimethyl-3-(3-methylcyclobutanecarbonyl)-N—((S)-1-oxo-3-((S)-2-oxopyrrolidin-3-yl)propan-2-yl)-3-azabicyclo[3.1.0]hexane-2-carboxamide], the pIC50 (HCoV-OC43 Mpro) was 6.50, the pIC50 (HCoV-229E Mpro) was 6.98 and the pIC50 (SARS-CoV-2 Mpro; [1]) was 7.09. The pIC50 (HCoV-NL63 Mpro) was 5.80, the pIC50 (HCoV-HKU1 Mpro) was 6.64 and the pIC50 (SARS-CoV-1 Mpro) was 6.69. The pIC50 (MERS Mpro) was 5.93.
